The test system of one assay is HL-60 cells. Description: induction of HL-60 cell differentiation to macrophages (NBT reduction). It counts as cell-based, human. The settings on record: 96 hours incubation, formazan at 650 nm. As for the experimental part: It is known in the literature (Mangelsdorf, D. J. et al., J. Cell. Biol. 98: 391-398 (1984)) that the treatment of human leukemia cells (promyelocyte cell line HL-60, available, e.g., from the ATCC, Rockville, Md.) in vitro with calcitriol induces the differentiation of the cells to macrophages.
HL-60 cells are cultivated in tissue culture medium (RPMI - 10% fetal calf serum) at 37° C. in an atmosphere of 5% CO2 in air.
For substance testing, the cells are centrifuged and 2.8×10^5 cells/ml are suspended in phenol red-free tissue culture medium. The test substances are dissolved in ethanol and diluted with tissue culture medium without phenol red to achieve the desired concentration. The diluted test substances are mixed with the cell suspension in a ratio of 1:10 and 100 μl each of this cell suspension mixed with substance is pipetted in a depression of a 96-hole plate. As a control, a cell suspension is prepared similarly, but only with the solvent. […]
To dissolve the formed intracellular formazan crystals, 100 μl of potassium hydroxide (2 mol/l) and 100 μl of dimethylsulfoxide are pipetted into each depression and ultrasonically irradiated for 1 minute. The concentration of formazan is spectrophotometrically measured at 650 nm.
As a measurement for the differentiation induction of HL 60 cells to macrophages, the concentration of formed formazan is determined. […]

Assay [1] concerns human peripheral blood mononuclear cells. Description: PHA-stimulated lymphocyte proliferation ([3H]-thymidine incorporation). The assay is classed as cell-based. The conditions noted are these: PBMC, PHA 5 μg/well, 96 hours after stimulation, read-out: concentration inhibiting lymphocyte proliferation by 50%. As for the experimental part:
At the time of seeding, cells were treated with phytohemagglutinin (PHA) 5 μg/well. The test compound was added at the same time as PHA in various concentration. Lymphocyte proliferation was determined 96 hours after stimulation by incorporation of [^3 H]-thymidine. For that, [^3 H]-thymidine (0.2 μCi/well) was added for the last 6 hours of culture, then medium and cells were filtrated through a glass fiber filter. Radioactivity of the filters were determined in a β-counter.

For assay [2], the system named is IL-2 secretion, human peripheral blood mononuclear cells. Briefly: IL-2 secretion by PHA-stimulated lymphocytes (ELISA). It counts as cell-based. The conditions noted are these: compared with calcitriol; PHA 20 μg/well, 24 hours. As for the experimental part: For determination of IL-2 secretion, human peripheral blood mononuclear cells were prepared as above, seeded at a density of 2×10^6 cells/well×200 μl into 24-well-plates and cultured in RPMI 1640 in the presence of 2% fetal calf serum. At the time of seeding, PHA (20 μg/well) and the test compound was added. 24 hours after stimulation, cell cultures were harvested, medium separated from cells by centrifugation, and IL-2 concentration in the medium determined by an ELISA based on a polyclonal antibody IL-2.
For orientation: In an ELISA, binding on a coated surface is turned into a signal by an enzyme label.

Each structure is given as a SMILES string.

Take `C=C1/C(=C\C=C2/CCC[C@]3(C)[C@@H](C(C)(C)/C=C/C=C/C(C)(C)O)CC[C@@H]23)C[C@@H](O)C[C@@H]1O` [1(S),3(R)-Dihydroxy-20-(5-hydroxy-5-methyl-hexa-1E,3E-dien-1-yl)-20-methyl-9,10-secopregna-5Z,7E,10(19)-triene]: the relative activity in inducing differentiation: ED50 test substance/ED50 calcitriol in the assay with HL-60 cells is approximately 0.001. Consider `C=C1/C(=C\C=C2/CCC[C@]3(C)[C@@H]([C@H](C)CCCC(C)(C)O)CC[C@@H]23)C[C@@H](O)C[C@@H]1O` [1,25-dihydroxy-vitamin D3, 1α,25-dihydroxycholecalciferol, reference compound], for which the IC50 in assay [1] amounted to 0.44 nM. With `C=C1/C(=C\C=C2/CCC[C@]3(C)[C@@H](C(C)(C)CC=CC(C)(C)O)CC[C@@H]23)C[C@@H](O)C[C@@H]1O` [ZK 157202, 1α,25-dihydroxy-20-methyl-23,24-dehydrovitamin D3], the “concentration range at which inhibition of IL-2 secretion starts” value in assay [2] is reported as “about the same as for calcitriol”. In assay [1], the IC50 turned out to be 0.013 nM.

For the origin of these results see patent US5446035A, “20-methyl-substituted vitamin D derivatives” (Schering Aktiengesellschaft, priority 1991, dated 1995).
